pIC50: −log10 of the molar value. Like-named read-outs stand apart in the source and are kept apart here.
Tests used:
[1] = system: porcine lens epithelial (PLE) cells; test: Toxicity of PA and its analogs to PLE cell growth (cell counts, 50% inhibitory concentration); type: cell-based; settings: for IC50 / pIC50: Sus scrofa, 120 hours (five days) with substance, treated cell count equal to 50% of control; for IC50: from FIG. 5, read-out: IC50 μg/mL; for pIC50: from FIG. 5, read-out: IC50 mmol/L
Method: FIG. 5. Toxicity of Picolinic Acid and its analogs in Pig Lens Epithelial Cells. Pig lens epithelial cells were plated in quadruplicate in 24 well trays at 5000 cells/well using minimal essential media plus 10% fetal calf serum (10% FCS MEM) with antibiotics. At 24 hours after plating, substances were added with a media change, at appropriate concentrations. Cells were allowed to grow for an additional 120 hours in the presence of the various substances. Cells were then counted, four dishes, in duplicate, and the cell counts were expressed as a percentage of the control cell counts.
Growth curve data were obtained from cells plated without any agents. Cell counts were performed daily on a total of eight wells per point, by combining four wells per count and performing counts in duplicate.
The toxicity of PA and its analogs to the PLE cells was tested according to the method of Senderoff et al. (66) PLE cells were plated in 24 well trays at 5000 cells per well in 1 mL of tissue culture medium (see above). The medium was changed at 24 hours, and new medium containing the analogs was added. Five days after addition of substances, cell counts were performed using a total of four wells per point, by combining two wells per count, and performing counts in duplicate. Results were expressed as a percentage of the untreated or control cell counts.

PLE cells = test: Induction of apoptosis in PLE cells (DNA fragmentation detection kit); type: cell-based, porcine; settings: for effect on monolayer growth, floating cells and DNA laddering staining: 48 hours, 3 mM picolinic acid, 0.3 mM fusaric acid; for state of cells at 72 hours: 3 mmol/L PA, 0.3 mmol/L FA, results not shown; for induction of apoptosis in PLE cells: discussion statement
Method: FIG. 6. Induction of Apoptosis in PLE cells. PLE cells were grown in 35 mm dishes in tissue culture. Analogs were added to media 24 hours after cells were plated. After 48 hours of incubation, floating or supernatant cells were spun onto slides and stained using the DNA fragmentation kit. The conditions are as follows: A. Control monolayer; B. Control stained supernatant; C. 3 mM picolinic acid monolayer; D. 3 mM picolinic acid stained supernatant; E. 0.3 mM fusaric acid monolayer; F. 0.3 mM fusaric acid stained supernatant.
The ability of PA and its analogs to induce apoptosis was detected with the DNA fragmentation detection kit (Oncogene Research Products, Boston, Mass.). One of the molecular effects of apoptosis is the formation of oligonucleosomal DNA fragments by DNA laddering (67). The kit includes a Klenow DNA polymerase that labels 3′-OH terminals of DNA, which are formed in the laddering process. Incorporated biotinylated nucleotides are then detected with a chromogenic labeling system of streptavidin-horseradish peroxidase diaminobenzidine. Cells were plated in 35-mm wells at a density of 50,000 cells per well. 24 hours after plating, analogs were added concurrently with fresh media. Pictures were taken after 48 hours of exposure to the analogs. Floating cells were washed and placed in Saccomanno's fixative (Shandon, Pittsburgh, Pa.), centrifuged onto Superfrost slides (Fisher Scientific, Pittsburgh, Pa.) with a CytoSpin centrifuge (Shandon, Pittsburgh, Pa.), and stained according to the protocol given.
To test for the role of apoptosis in the toxicity of PA and its analogs, the PLE cells were exposed to 0.3 mmol/L FA and 3 mmol/L of PA.

corneal endothelium = test: Toxicity in corneal endothelium (Janus Green staining of pig corneas); settings: for Janus Green staining relative to untreated control: 48 hours, corneal endothelium in 2% FCS M199; for Avg Abs650/SD (Janus Green stain eluted from trephine cut-outs of treated corneas): 48 hr in 2% FCS M-199, PA 3 mM, FA 0.3 mM, absorbance at 650 nm
Method: Testing of Toxicity in Corneal endothelium: To test for the effects of PA and FA on corneal endothelium, fresh corneas from pig eyes were aseptically dissected out, with a 2 mm scleral ring and placed in 2% FCS M-199 medium with antibiotics, as M-199 medium has previously been used for corneal experiments (84).
Times of incubation and concentrations which were used in the apoptosis experiment were implemented, i.e. 48 hours at 3 mM PA and 0.3 mM FA. Serum concentration of 2% was employed to maintain the corneal cells without undo stimulation. Corneas were rinsed with Hanks Balanced Salt Solution (HBSS) and stained for 90 seconds with 0.2 mL 1% Janus Green (85) in HBSS as a test for viability. The corneas were again rinsed. Negative controls were set up by placing corneas in 100% ethanol for 5 minutes prior to addition of Janus Green, to give staining in 100% “damaged” corneas. Using an 8 mm trephine, the central section of the cornea was punched out, and the dye was eluted with 2 ml 100% ethanol and the absorbance was measured at 650 nm. The Janus Green staining experiment of corneas was repeated twice. Duplicate samples were used for drug conditions and triplicate samples for controls. Janus green staining was also carried out on fresh cornea, for comparison purposes.

WI-38 cells = settings: 0.5 mM fusaric acid, cited from earlier work

Structure (SMILES): O=C(O)c1cccnc1 [Nicotinic acid, nicotinic acid]
- IC50 [1]: 539 µg/mL
- pIC50 [1]: 2.36

Structure (SMILES): CCCCc1ccc(C(=O)O)nc1 [Fusaric acid, fusaric acid]
- effect on monolayer growth, floating cells and DNA laddering staining (PLE cells): many floating cells, with strong nuclear staining
- effect on monolayer growth, floating cells and DNA laddering staining (PLE cells; listed as FA): significant cell death by the apoptotic pathway
- state of cells at 72 hours (PLE cells): no living cells were seen
- induction of apoptosis in PLE cells (PLE cells): rapidly induced apoptosis
- IC50 [1]: 5.6 µg/mL
- pIC50 [1]: 4.51
- times more toxic than PA (on concentration basis) ([1]; from IC50 data): about 15 times
- Janus Green staining relative to untreated control (corneal endothelium): stained less than the untreated control
- Avg Abs650/SD (Janus Green stain eluted from trephine cut-outs of treated corneas) (corneal endothelium): 0.287 ± 0.011
- viability of confluent WI-38 cells (WI-38 cells; confluent cells, 48 hour incubation): no significant drop in viability
- decrease in viability of logarithmically growing WI-38 cells (WI-38 cells; logarithmically growing cells, by 30 hours): 76%

Structure (SMILES): O=C(O)c1ccccn1 [Picolinic acid]
- effect on monolayer growth, floating cells and DNA laddering staining (PLE cells): inhibits growth of the monolayer with few floating cells
- effect on monolayer growth, floating cells and DNA laddering staining (PLE cells; listed as PA): inhibition of cell growth but little cell death
- state of cells at 72 hours (PLE cells): many floating cells
- state of cells at 72 hours (PLE cells; listed as PA): very few cells were still attached
- induction of apoptosis in PLE cells (PLE cells): rapidly induced apoptosis
- IC50 [1]: 55.3 µg/mL
- pIC50 [1]: 3.35
- Janus Green staining relative to untreated control (corneal endothelium): stained less than the untreated control
- Avg Abs650/SD (Janus Green stain eluted from trephine cut-outs of treated corneas) (corneal endothelium): 0.321 ± 0.041

Structure (SMILES): O=C(O)c1cccc(C(=O)O)n1 [Dipicolinic acid]
- IC50 [1]: 185 µg/mL
- pIC50 [1]: 2.96
- times less toxic than PA ([1]; from IC50 data): 2.5 times

Reference: patent US20100113535A1, “TREATMENT OF PRESBYOPIA WITH ALPHA- PICOLINIC ACID AND ITS ANALOGS” (The Department of Veterans Affairs Technology Transfer …, priority 2005, published 2010)
